Experimental data taken from patent publication US12012410B2, “Substituted pyrazolo[1,5-a]pyrazines for spinal muscular atrophy” (REBORNA BIOSCIENCES, INC., priority 2018, dated 2024).

These molecules were tested on FL-SMN mRNA (SMN transcript containing exons 7 and 8) (assay: Live-cell assay to measure changes in FL-SMN mRNA levels (qPCR) after exposure to the compounds). Settings: fibroblasts derived from patients SMA (GM03813); 24 hours incubation.
Assay type: cell-based, human
Description: In this example, each test compound was administered to cultured cells, and changes in the expression levels of mRNA transcripts of SMN, i.e., FL-SMN containing exons 7 and 8 and Delta7 with exon 7 skipped, were examined using PCR.
Fibroblasts derived from patients SMA (GM03813) (Coriell Cell Repositories) were cultured with passages using DMEM (High Glucose) (Life Technologies) supplemented with 10% FBS (Life Technologies). Cells were seeded in tissue-culture-treated 96-well plates (Corning) at 1.5 or 0.5×10^4 cells/well in 100 μL of medium. The cells were incubated in 5% CO2 for 6 hours, and the medium was replaced with 100 μL of medium (with DMSO, 0.1% final concentration) containing each of the compounds given in the Examples. After additional incubation for 24 hours under the same conditions, the cells were washed once with D-PBS(—) (Wako) and 25 μL/well of the lysis solution (with gDNA Remove) contained in the SuperPrep (registered trademark) Cell Lysis & RT Kit for qPCR (Toyobo life science) was added according to the manufacturer's instructions so that the cells were lysed and the genomic DNA was degraded. Furthermore, 5 μL of the STOP solution (with RNase Inhibitor) contained in the kit was added to provide RNA-containing solutions. Six microliters of the RNA-containing solutions were each mixed with 14 μL of a reverse transcription solution containing transcriptase together with dNTP, random primers and an oligodT primer. Reverse transcription was performed at 37° C. (15 min), 50° C. (5 min), and 98° C. (5 min), to give total cDNAs. The total cDNAs were diluted 30-fold with Ultra-pure water (Invitrogen) to measure the expression levels of FL-SMN, delta7, and GAPDH. For quantitative PCR (qPCR), a PCR solution was prepared according to the instructions of the manufacturer of the THUNDERBIRD (registered trademark) Probe qPCR Mix (Toyobo life science). Five microliters of the diluted total cDNA solutions and oligo DNA standard solutions, each containing either 001-Standard FL-SMN (SEQ ID NO. 1) or 002-Standard delta7 (SEQ ID NO. 2), were each mixed with 10 μL of each of the PCR solutions containing a qPCR probe, primers, and PCR enzyme. […] The oligoDNA standard solutions were prepared as those containing either of 5×10^8, 5×10^7, 5×10^6, 5×10^5, 5×10^4, 5×10^3, 5×10^2, 5×10, 5, or 0 copies. For the oligo DNA standards, primers, and probes, oligonucleotides synthesized by Integrated DNA Technologies, Inc. (IDT) were used. […] FIGS. 3B and 3D show their detection mechanisms. The final concentrations of the primers and probes added were 0.4 μM and 0.15 μM, respectively. The qPCR was performed using the following conditions on a ViiA7 instrument (Applied Biosystems): first stage: 95° C. (1 min)→second stage: 95° C. (15 sec)→third stage: 60° C. (1 min)→40 repeated cycles of the second and third stages. The GAPDH mRNA was used as the internal control, and the commercially available 20×gene expression PCR assay (Life Technologies, 4326317E, Hs99999905_ml) and Standard GAPDH (SEQ ID NO. 7) (see FIG. 1) was used to determine the number of copies of this gene. The measurement values obtained for the samples to be measured were standardized against the respective value obtained for GAPDH.
Using the above-mentioned assays, the activities of the compounds of the Examples were evaluated. Specifically, the percentages of the FL-SMN and delta7 values obtained using DMSO without the compounds and standardized against GAPDH were set as 100% and those of the FL-SMN and delta7 values obtained at the time of administration of the compounds and standardized against GAPDH were calculated. […]

SMILES	Percentage of increase (FL-SMN mRNA standardized against GAPDH, DMSO control set as 100%)
CCN1CCC(c2nc3ccc(-c4cc(F)c5nc(C)oc5c4)cc3c(=O)[nH]2)CC1 [Example 25, 2-(1-ethylpiperidin-4-yl)-6-(4-fluoro-2-methylu 1,3-benzoxazole-6-yl) kinazoline-4 (3H)-one]	**** (equal to or higher than 180%)
Cc1cn2cc(-c3ccc4c(=O)n(C5CCN(C)CC5)cnc4c3)ccc2n1 [Example 26, 7-(2-methylimidazo[1,2-a]pyridine-6-yl)-3-(1-methylpiperidin-4-yl) kinazoline-4 (3H)-one]	**** (equal to or higher than 180%)
Cc1nc2c(F)cc(-c3ccc4nc(C5CCN(C6CC6)CC5)[nH]c(=O)c4c3)cc2o1 [Example 27, 2-(1-cyclopropylpiperidin-4-yl)-6-(4-fluoro-2-methyl-1,3-benzoxazol-6-yl)quinazolin-4(3H)-one]	**** (equal to or higher than 180%)
Cc1nc2c(F)cc(-c3cc(F)c4nc(C5CCN(C6CC6)CC5)[nH]c(=O)c4c3)cc2o1 [Example 28, 2-(1-cyclopropylpiperidin-4-yl)-8-fluoro-6-(4-fluoro-2-methyl-1,3-benzoxazol-6-yl)quinazolin-4(3H)-one]	**** (equal to or higher than 180%)
Cc1nc2c(F)cc(-c3ccc4c(=O)n(C5CCN(C)CC5)cnc4c3)cc2o1 [Example 29, 7-(4-fluoro-2-methyl-1,3-benzoxazol-6-yl)-3-(1-methylpiperidin-4-yl)quinazolin-4(3H)-one]	**** (equal to or higher than 180%)
Cc1nc2ccc(-c3cc(F)c4nc(C5CCN(C)CC5)[nH]c(=O)c4c3)cc2o1 [Example 30, 8-fluoro-6-(2-methyl-1,3-benzoxazol-6-yl)-2-(1-methylpiperidin-4-yl)quinazolin-4(3H)-one]	**** (equal to or higher than 180%)
Cc1nc2ccc(-c3cc(F)c4nc(C5CCN(C6CC6)CC5)[nH]c(=O)c4c3)cc2o1 [Example 31, 2-(1-cyclopropylpiperidin-4-yl)-8-fluoro-6-(2-methyl-1,3-benzoxazol-6-yl)quinazolin-4(3H)-one]	**** (equal to or higher than 180%)
Cc1cn2cc(-c3ccc4nc(C5CCN(C6CC6)CC5)[nH]c(=O)c4c3)cc2cn1 [Example 32, 2-(1-cyclopropylpiperidin-4-yl)-6-(3-methylpyrrolo[1,2-a]pyrazin-7-yl)quinazolin-4(3H)-one]	**** (equal to or higher than 180%)
Cc1cn2cc(-c3cc(F)c4nc(C5CCN(C6CC6)CC5)[nH]c(=O)c4c3)cc2cn1 [Example 33, 2-(1-cyclopropylpiperidin-4-yl)-8-fluoro-6-(3-methylpyrrolo[1,2-a]pyrazin-7-yl)quinazolin-4(3H)-one acetate]	*** (equal to or higher than 150% but lower than 180%)
Cc1nc2c(F)cc(-c3ccc4c(=O)n(C5CCN(C6CC6)CC5)cnc4c3)cc2o1 [Example 34, 3-(1-cyclopropylpiperidin-4-yl)-7-(4-fluoro-2-methyl-1,3-benzoxazol-6-yl)quinazolin-4(3H)-one]	**** (equal to or higher than 180%)
COc1ccc(-c2cc(F)c3nc(C4CCN(C5CC5)CC4)[nH]c(=O)c3c2)cc1F [Example 35, 2-(1-cyclopropylpiperidin-4-yl)-8-fluoro-6-(3-fluoro-4-methoxyphenyl) quinazolin-4(3H)-one]	**** (equal to or higher than 180%)
Cc1cn2nc(-c3nc4ccc(N5CCN(C6CC6)CC5)cc4c(=O)[nH]3)cc2c(C)n1 [Example 36, 6-(4-cyclopropylpiperazin-1-yl)-2-(4,6-dimethylpyrazolo[1,5-a]pyrazin-2-yl)quinazolin-4(3H)-one]	**** (equal to or higher than 180%)
Cc1cn2cc(-c3ccc4nc(C5(F)CCN(C)CC5)[nH]c(=O)c4c3)ccc2n1 [Example 37, 2-(4-fluoro-1-methylpiperidin-4-yl)-6-(2-methylimidazo[1,2-a]pyridin-6-yl)quinazolin-4(3H)-one]	*** (equal to or higher than 150% but lower than 180%)
Cc1nc2c(F)cc(-c3ccc4nc(C5CCN(C(C)C)CC5)[nH]c(=O)c4c3)cc2o1 [Example 38, 6-(4-Fluoro-2-methyl-1,3-benzoxazol-6-yl)-2-(1-isopropylpiperidin-4-yl)quinazolin-4(3H)-one]	**** (equal to or higher than 180%)
Cc1cn2cc(-c3ccc4c(=O)n(C5CCN(C6CC6)CC5)cnc4c3)cc(F)c2n1 [Example 39, 3-(1-cyclopropylpiperidin-4-yl)-7-(8-fluoro-2-methylimidazo[1,2-a]pyridin-6-yl)quinazolin-4(3H)-one]	*** (equal to or higher than 150% but lower than 180%)
Cc1cn2cc(-c3cc(C)c4nc(C5CCN(C6CC6)CC5)[nH]c(=O)c4c3)cc(F)c2n1 [Example 40, 2-(1-cyclopropylpiperidin-4-yl)-6-(8-fluoro-2-methylimidazo[1,2-a]pyridin-6-yl)-8-methylquinazolin-4(3H)-one]	**** (equal to or higher than 180%)
Cc1nc2ccc(-c3nc4cc(C)c(C5CCN(C)CC5)cc4c(=O)[nH]3)cc2o1 [Example 41, 7-methyl-2-(2-methyl-1,3-benzoxazol-6-yl)-6-(1-methylpiperidin-4-yl)quinazolin-4(3H)-one]	* (equal to or higher than 100% but lower than 120%)
CN1CCN(c2ccc3nc(C4=NOC5(CCN(C)CC5)C4)[nH]c(=O)c3c2)CC1 [Example 42, 2-(8-methyl-1-oxa-2,8-diazaspiro[4.5]dec-2-en-3-yl)-6-(4-methylpiperazin-1-yl)quinazolin-4(3H)-one]	* (equal to or higher than 100% but lower than 120%)
CN1CCC(c2ccc3nc(C4=NOC5(CCN(C)CC5)C4)[nH]c(=O)c3c2)CC1 [Example 43, 2-(8-methyl-1-oxa-2,8-diazaspiro[4.5]dec-2-en-3-yl)-6-(1-methylpiperidin-4-yl)quinazolin-4(3H)-one]	* (equal to or higher than 100% but lower than 120%)
Cc1ccc(-c2nc3ccc(C4CCN(C)CC4)cc3c(=O)[nH]2)c(=O)n1C [Example 44, 2-(1,6-dimethyl-2-oxo-1,2-dihydropyridin-3-yl)-6-(1-methylpiperidin-4-yl)quinazolin-4(3H)-one]	** (equal to or higher than 120% but lower than 150%)
COc1cccc(-c2nc3ccc(C4CCN(C)CC4)cc3c(=O)[nH]2)n1 [Example 45, 2-(6-methoxypyridin-2-yl)-6-(1-methylpiperidin-4-yl)quinazolin-4(3H)-one]	** (equal to or higher than 120% but lower than 150%)
CN1CCC(c2ccc3nc(-c4cc5n(n4)CCOC5)[nH]c(=O)c3c2)CC1 [Example 46, 2-(6,7-dihyrdo-4H-pyrazolo[5,1-c][1,4]oxazin-2-yl)-6-(1-methylpiperidin-4-yl)quinazolin-4(3H)-one]	* (equal to or higher than 100% but lower than 120%)
